Assay results from US6699854B2, “Anti-cancer compounds” (Cyclacel Limited, priority 2000, dated 2004).
“Also recorded” adds a separate entry of the source. Where two headings read alike, the source gives them in different places. One block for each compound: values may come before it.

Columns and labels:
ERK-2 = ERK-2 (Homo sapiens, UniProt P28482); test: ERK-2 kinase assay (kinase panel); assay type: biochemical; details: Table 1
CDK1/cyclin B = target: T1, CDK1/cyclin B (Homo sapiens, UniProt P06493); test: CDK1/cyclin B kinase assay (GST-Rb phosphorylation); assay type: biochemical; details: Table 1
T1 construct: His; made in house; host or cells: Sf9 insect cells (baculovirus)
T1 sequence (P06493 whole entry, species assumed): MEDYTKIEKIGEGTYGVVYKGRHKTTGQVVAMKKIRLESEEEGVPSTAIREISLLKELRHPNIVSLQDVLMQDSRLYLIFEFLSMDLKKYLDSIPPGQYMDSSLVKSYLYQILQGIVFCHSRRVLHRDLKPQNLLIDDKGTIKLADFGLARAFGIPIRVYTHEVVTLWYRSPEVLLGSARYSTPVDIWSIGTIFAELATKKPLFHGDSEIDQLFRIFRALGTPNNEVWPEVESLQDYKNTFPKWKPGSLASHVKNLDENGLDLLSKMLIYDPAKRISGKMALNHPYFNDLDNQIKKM
T1 sequence (P14635 whole entry partner, species assumed): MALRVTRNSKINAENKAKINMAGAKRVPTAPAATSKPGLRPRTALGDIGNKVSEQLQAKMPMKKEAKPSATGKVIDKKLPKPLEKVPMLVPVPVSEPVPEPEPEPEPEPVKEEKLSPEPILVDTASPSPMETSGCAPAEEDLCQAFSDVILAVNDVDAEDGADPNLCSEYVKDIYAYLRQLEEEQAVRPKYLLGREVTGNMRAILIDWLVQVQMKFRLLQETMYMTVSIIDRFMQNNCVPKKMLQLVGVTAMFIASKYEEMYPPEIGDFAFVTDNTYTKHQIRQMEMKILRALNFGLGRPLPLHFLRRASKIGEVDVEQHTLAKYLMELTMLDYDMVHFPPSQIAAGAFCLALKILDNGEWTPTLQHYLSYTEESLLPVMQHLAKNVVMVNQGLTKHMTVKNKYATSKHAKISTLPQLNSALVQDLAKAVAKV

SAPK2a = SAPK2a (Homo sapiens, UniProt Q16539); test: SAPK2a kinase assay (kinase panel); assay type: biochemical; details: Table 1
SAPK2a, sequence (Q16539 whole entry, species assumed): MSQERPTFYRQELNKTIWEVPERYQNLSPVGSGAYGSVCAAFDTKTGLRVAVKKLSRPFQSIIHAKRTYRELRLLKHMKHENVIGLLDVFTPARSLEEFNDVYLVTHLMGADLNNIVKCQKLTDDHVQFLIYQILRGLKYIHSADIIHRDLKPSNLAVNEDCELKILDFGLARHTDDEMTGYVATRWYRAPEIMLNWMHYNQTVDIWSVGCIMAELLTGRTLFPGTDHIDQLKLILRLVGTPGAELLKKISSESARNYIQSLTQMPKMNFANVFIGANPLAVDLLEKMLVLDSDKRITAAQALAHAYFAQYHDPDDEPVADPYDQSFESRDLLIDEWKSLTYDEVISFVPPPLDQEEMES

S6 = S6 kinase assay (kinase panel); assay type: biochemical; details: Table 1
CDK2/cyclin E = target: T2, CDK2/cyclin E (Homo sapiens, UniProt P24941); test: CDK2/cyclin E kinase assay (GST-Rb phosphorylation); assay type: biochemical;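 also: enzyme source: His-tagged CDK2/cyclin E co-expressed in Sf9 insect cells via baculovirus, then purified by metal-chelate chromatography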
T2 construct: His; made in house; host or cells: Sf9 insect cells (baculovirus)

CDK4/cyclin D1 = CDK4/cyclin D1 (Homo sapiens, UniProt P11802); test: biochemical
CDK4/cyclin D1, sequence (P11802 whole entry, species assumed): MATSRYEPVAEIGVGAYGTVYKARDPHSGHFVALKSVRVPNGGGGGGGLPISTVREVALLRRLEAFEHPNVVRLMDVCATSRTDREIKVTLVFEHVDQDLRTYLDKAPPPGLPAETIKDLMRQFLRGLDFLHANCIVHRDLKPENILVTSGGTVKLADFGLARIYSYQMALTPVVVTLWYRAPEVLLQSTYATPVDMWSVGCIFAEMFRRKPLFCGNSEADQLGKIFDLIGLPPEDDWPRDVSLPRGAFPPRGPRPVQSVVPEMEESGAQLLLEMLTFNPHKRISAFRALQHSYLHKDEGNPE
CDK4/cyclin D1, sequence (P24385 whole entry partner, species assumed): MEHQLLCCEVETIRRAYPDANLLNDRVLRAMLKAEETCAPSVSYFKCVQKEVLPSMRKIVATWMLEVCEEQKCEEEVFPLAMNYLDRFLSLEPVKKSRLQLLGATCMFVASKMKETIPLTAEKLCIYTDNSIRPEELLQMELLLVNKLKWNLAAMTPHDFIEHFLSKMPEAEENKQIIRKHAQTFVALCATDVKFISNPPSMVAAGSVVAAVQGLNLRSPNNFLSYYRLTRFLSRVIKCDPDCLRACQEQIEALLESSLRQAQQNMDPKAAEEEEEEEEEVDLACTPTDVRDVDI

PKCa = target: T3, PKCa (Homo sapiens, UniProt P17252); test: PKCα kinase assay (Histone 3 phosphorylation); assay type: biochemical; details: Table 1
T3 construct: 6×His (C); made in house; host or cells: Sf9 insect cells (baculovirus)
Procedure: PKCα kinase activity may be measured by the incorporation of radio-labeled phosphate in Histone 3, as described. The reaction mixture (total volume 65 μl) consist of 50 mM Tris-HCl, 1 mM Calcium acetate, 3 mM DTT, 0.03 mg/ml Phosphatidylserine, 2.4 μg/ml PMA, 0.04% NP40, 12 mM Mg/Cl, purified PKCα-100 ng, Histone 3, 0.2 mg/ml, 100 μM ATP, 0.2 μCi {γ-^32P}-ATP. The reaction is carried over 15 min at 37° C. in microplate shaker and is stopped by adding 10 μl 75 mM orthophosphoric acid and placing the plate on ice. 50 μl of the reaction mixture is transferred onto P81 filterplate and after washing off the free radioactive phosphate (3 times with 200 μl 75 mM orthophosphoric acid per well) 50 μl of scintillation liquid (Microscint 40) were added to each well and the radioactivity is measured on Scintillation counter (Topcount, HP).

A549 = test: 72-h MTT cytotoxicity assay, A549; assay type: cell-based, human; details: Homo sapiens
Procedure: (§1) Selected compounds from the above examples were subjected to a standard cellular proliferation assay using a range of different human tumour cell lines. Standard 72-h MTT (thiazolyl blue; 3-{4,5-dimethylthiazol-2-yl}-2,5-diphenyltetrazolium bromide) assays were performed (Haselsberger, K.; Peterson, D. C.; Thomas, D. G.; Darling, J. L. Anti Cancer Drugs 1996, 7, 331-8; Loveland, B. E.; Johns, T. G.; Mackay, I. R.; Vaillant, F.; Wang, Z. X.; Hertzog, P. J. Biochemistry International 1992, 27, 501-10). Human tumour cell lines were obtained from the ATCC (American Type Culture Collection, 10801 University Boulevard, Manessas, Va. 20110-2209, USA).

HeLa = test: 72-h MTT cytotoxicity assay, HeLa; assay type: cell-based; details: Homo sapiens, read-out: 72-h Cytotoxicity IC 50 HeLa, Table 3, 72-h MTT
Procedure: as §1

Saos-2 = test: 72-h MTT cytotoxicity assay, Saos-2; assay type: cell-based; details: Homo sapiens, SAOS-2, read-out: 72-h Cytotoxicity IC 50 Saos-2; Table 3, 72-h MTT
Procedure: as §1

MCF-7 = test: 72-h MTT cytotoxicity assay, MCF-7; assay type: cell-based; details: Homo sapiens, MCF7, read-out: 72-h Cytotoxicity IC 50 MCF-7; Table 3, 72-h MTT
Procedure: as §1

AGS = test: 72-h MTT cytotoxicity assay, AGS; assay type: cell-based; details: Homo sapiens, read-out: 72-h Cytotoxicity IC 50 AGS, Table 3, 72-h MTT
Procedure: as §1

DU145 = test: 72-h MTT cytotoxicity assay, DU145; assay type: cell-based; details: Homo sapiens, DU-145, read-out: 72-h Cytotoxicity IC 50 DU145; Table 3, 72-h MTT
Procedure: as §1

A549 cells = test: Mitotic index HitKit (Cellomix); assay type: cell-based, human; details: toxicity above this concentration
Source text: The effect of compound 28 on the mitotic index was studied using mitotic index HitKit (Cellomix). Vinblastine was used as control in the experiments.
Above this concentration a decrease in the number of mitotic cells is observed which correlates with a decrease in the total number of cells.

[1] = tested on: Human osteosarcoma tumour cells (Saos-2); test: Mitotic arrest and apoptosis by phase-contrast microscopy; assay type: cell-based; details: Saos-2 cells, 1 μM, 48 h
Procedure: Human osteosarcoma tumour cells (Saos-2) were treated with 1 μM of compound 28 for 48 h. […] Compound 28-induced accumulation of mitotic cells was further quantified using mitotic index HitKit (Cellomix).

[2] = tested on: Human lung carcinoma cells (A549); test: Induction of programmed cell death (cytoplasmic vacuolation); assay type: cell-based; details: 10 μM, 16 h
Procedure: In addition to the induction of apoptosis some of the compounds of the invention are capable of inducing forms of programmed cell death that is distinct from apoptosis by the criteria of morphology. Human lung carcinoma cells (A549) were treated for 16 h with 10 μM compound 28.

human tumour cell lines = test: Cell-based assays (anti-proliferative)
Source text: These assays including methods for their performance are described in more detail in Example 23. Using such cell line and enzymes assays it may be determined whether a compound is anti-proliferative in the context of the present invention.
as §1

[3] = A549, 72 h, read-out: 72-h Cytotoxicity IC 50 A549, Table 3, 72-h MTT
[4] = Table 4, additional data for cytotoxicity assay using the A549 cell line, read-out: A549

ERK-2, sequence (P28482 whole entry, species assumed): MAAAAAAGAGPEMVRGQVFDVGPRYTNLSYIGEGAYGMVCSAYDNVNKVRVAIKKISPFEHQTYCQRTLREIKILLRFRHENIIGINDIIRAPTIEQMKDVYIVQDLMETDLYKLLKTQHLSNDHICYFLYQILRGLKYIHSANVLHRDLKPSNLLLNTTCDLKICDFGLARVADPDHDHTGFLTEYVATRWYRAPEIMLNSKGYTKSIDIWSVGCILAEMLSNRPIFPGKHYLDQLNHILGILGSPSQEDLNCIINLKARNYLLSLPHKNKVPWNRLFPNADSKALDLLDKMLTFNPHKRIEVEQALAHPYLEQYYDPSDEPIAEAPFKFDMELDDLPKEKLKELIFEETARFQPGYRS

IC50 (ERK-2): > 20 µM
IC50 (CDK1/cyclin B): > 20 µM
IC50 (SAPK2a): > 20 µM
IC50 (S6): > 20 µM
IC50 (CDK2/cyclin E; CDK2/cyclin E, Table 2, further results for CDK2/cyclin E inhibition): 5 ± 9 µM
IC50 (CDK2/cyclin E; Kinase assay IC50 CDK2/cyclin E, Table 1): 9 ± 12 µM
IC50 (CDK4/cyclin D1): 0.5 ± 0.5 µM
IC50 (PKCa): > 20 µM
SMILES: Cc1nc(C)c(-c2ccnc(Nc3ccc(Cl)cc3)n2)s1 [Compound 6, (4-Chloro-phenyl)-{4-(2,4-dimethyl-thiazol-5-yl)-pyrimidin-2-yl}-amine]

IC50 (ERK-2): > 20 µM
IC50 (CDK1/cyclin B): 0.1 µM
IC50 (SAPK2a): > 20 µM
IC50 (S6): > 20 µM
IC50 (PKCa): > 20 µM
SMILES: Cc1nc(C)c(-c2ccnc(Nc3cccc([N+](=O)[O-])c3)n2)s1 [Compound 12, {4-(2,4-Dimethyl-thiazol-5-yl)-pyrimidin-2-yl}-(3-nitro-phenyl)-amine]
IC50 (A549; [3]): 1.5 ± 0.3 µM
IC50 (A549; [4]): 0.2 µM
IC50 (HeLa): 1.2 ± 0.2 µM
IC50 (Saos-2): 1.4 ± 0.3 µM
IC50 (MCF-7): 1.7 ± 0.1 µM
IC50 (AGS): 1 ± 0.2 µM
IC50 (DU145): 1 ± 0.1 µM

IC50 (ERK-2): 2.5 µM
IC50 (CDK1/cyclin B): 0.2 µM
IC50 (SAPK2a): > 20 µM
IC50 (S6): 1 µM
IC50 (PKCa): > 20 µM
SMILES: Cc1nc(C)c(-c2ccnc(Nc3ccc(F)cc3)n2)s1 [Compound 21, {4-(2,4-Dimethyl-thiazol-5-yl)-pyrimidin-2-yl}-(4-fluoro-phenyl)-amine]
IC50 (A549; [3]): 5.4 ± 0.4 µM
IC50 (A549; [4]): 6.3 µM
IC50 (HeLa): 3.2 ± 0.8 µM
IC50 (Saos-2): 8.5 ± 1.6 µM
IC50 (MCF-7): 9.9 ± 0.4 µM
IC50 (AGS): 4.2 ± 0.3 µM
IC50 (DU145): 4.3 ± 0.2 µM

SMILES: Cc1nc(C)c(-c2ccnc(Nc3ccc(C(F)(F)F)cc3)n2)s1 [Compound 28, {4-(2,4-Dimethyl-thiazol-5-yl)-pyrimidin-2-yl}-(4-trifluoromethyl-phenyl)-amine]
maximum percentage of mitotic cells (A549 cells; at a concentration of 4.4 μM, untreated wells […]): 17%
mitotic arrest and induction of apoptosis [1]: mitotic arrest and induction of apoptosis; also recorded: accumulation of mitotic cells and appearance of apoptotic cells was observed
IC50 (A549; [4]): 3.5 µM
induction of programmed cell death, cytoplasmic vaculation [2]: Extensive cytoplasmic vaculation is observed

melting point: 173 to 175 °C
IC50 (CDK2/cyclin E; Table 2, further results for CDK2/cyclin E inhibition, read-out: CDK2/cyclin E): 0.2 µM
SMILES: Cc1nc(C)c(-c2ccnc(Nc3ccc(Br)cc3)n2)s1 [Compound 31, (4-Bromo-phenyl)-{4-(2,4-dimethyl-thiazol-5-yl)-pyrimidin-2-yl}-amine]
IC50 (A549; [4]): 0.3 ± 0.05 µM

SMILES: Cc1nc(C)c(-c2ccnc(Nc3ccc(I)cc3)n2)s1 [Compound 34, {4-(2,4-Dimethyl-thiazol-5-yl)-pyrimidin-2-yl}-(4-iodo-phenyl)-amine]
IC50 (A549; [4]): 0.02 µM
anti-proliferative effect (in words) (human tumour cell lines): even more effective anti-proliferative agent

SMILES: CC[C@]1(O)C[C@@H]2CN(CCc3c([nH]c4ccccc34)[C@@](C(=O)OC)(c3cc4c(cc3OC)N(C)[C@H]3[C@@](O)(C(=O)OC)[C@H](OC(C)=O)[C@]5(CC)C=CCN6CC[C@]43[C@@H]65)C2)C1 [Vinblastine, reference compound]
maximum percentage of mitotic cells (A549 cells; at a concentration of 22 nM): 31%
